The text below walks through data of patent publication US20140121260A1, “NOVEL CONJUGATES OF POLYUNSATURATED FATTY ACIDS WITH AMINES AND THERAPEUTIC USES THEREOF” (MedWell Laboratories Ltd., priority 2006, published 2014).

Molecules are shown by their SMILES.

As usually defined, the IC50 is the concentration that inhibits the measured activity by half. A low value points to inhibition by little substance.

The target in experiment [1] is T1, ovine COX-1 (Ovis aries, UniProt P05979).
T1 construct: purchased Cayman Chemical 560101
T1 sequence (P05979 25-600): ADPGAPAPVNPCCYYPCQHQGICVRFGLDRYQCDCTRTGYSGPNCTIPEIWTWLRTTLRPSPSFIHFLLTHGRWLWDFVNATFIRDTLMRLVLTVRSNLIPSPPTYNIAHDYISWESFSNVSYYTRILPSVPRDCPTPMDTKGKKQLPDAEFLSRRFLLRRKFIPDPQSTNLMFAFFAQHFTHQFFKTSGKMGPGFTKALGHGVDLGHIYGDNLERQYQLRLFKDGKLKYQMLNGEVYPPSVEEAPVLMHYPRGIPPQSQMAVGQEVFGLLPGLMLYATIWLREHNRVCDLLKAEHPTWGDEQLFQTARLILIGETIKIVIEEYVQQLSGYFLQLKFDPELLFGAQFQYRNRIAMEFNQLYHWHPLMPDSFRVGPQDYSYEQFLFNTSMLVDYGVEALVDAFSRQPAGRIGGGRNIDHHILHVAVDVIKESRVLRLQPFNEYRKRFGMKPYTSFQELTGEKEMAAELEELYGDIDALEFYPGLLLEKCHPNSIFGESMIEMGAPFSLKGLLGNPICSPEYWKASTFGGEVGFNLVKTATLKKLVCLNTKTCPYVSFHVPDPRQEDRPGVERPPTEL
As to the kind of experiment: In vitro COX-1 inhibition, enzyme immuno assay (EIA) kit. It is filed as biochemical. The note with it: ovine COX-1, EIA, duplicate determinations. Here is the method:
(§1) The exemplary conjugates shown in FIGS. 5 A-E, to which reference is now made, were tested for inhibition of COX-1 and COX-2 to in-vitro activity The ability of the test compounds listed in the Table 1 to inhibit ovine COX-1 and COX-2 (IC50 values, […]) was determined using an enzyme immuno assay (EIA) kit catalog number 560101, Cayman Chemical, Ann Arbor, Mich., USA) according to the manufacturers instructions.
(§2) Cyclooxygenase catalyzes the first step in the biosynthesis of arachidonic acid (AA) to PGH2. PGF2α, produced from PGH2 by reduction with stannous chloride, is measured by enzyme immunoassay (ACETM competitive EIA).
(§3) Stock solutions of test compounds were dissolved in a minimum volume of DMSO. Briefly, to a series of supplied reaction buffer solutions (960 μL, 0.1M Tris-HCl pH 8.0 containing 5 mM EDTA and 2 mM phenol) with either COX-1 or COX-2 (10 μL) enzyme in the presence of heme (10 μL) were added 10 μL of various concentrations of test drug solutions (0.01, 0.1, 1, 10, 50, and 100 μM in a final volume of 1 mL). These solutions were incubated for a period of 5 min at 37° C. after which 10 μL of AA (100 μM) solution were added and the COX reaction was stopped by the addition of 50 μL of 1M HCl after 2 min. PGF2α, produced from PGH2 by reduction with stannous chloride was measured by enzyme immunoassay.
(§4) This assay is based on the competition between PGs and a PG-acetylcholinesterase conjugate (PG tracer) for a limited amount of PG antiserum. The amount of PG tracer that is able to bind to the PG antiserum is inversely proportional to the concentration of PGs in the wells since the concentration of PG tracer is held constant while the concentration of PGs varies. The concentration of the test compound causing 50% inhibition (IC50, μM) was calculated from the concentration-inhibition response curve (duplicate determinations).

In experiment [2] the target is T2, ovine COX-2 (Ovis aries, UniProt P79208).
T2 construct: purchased Cayman Chemical 560101
T2 sequence (P79208 17-603): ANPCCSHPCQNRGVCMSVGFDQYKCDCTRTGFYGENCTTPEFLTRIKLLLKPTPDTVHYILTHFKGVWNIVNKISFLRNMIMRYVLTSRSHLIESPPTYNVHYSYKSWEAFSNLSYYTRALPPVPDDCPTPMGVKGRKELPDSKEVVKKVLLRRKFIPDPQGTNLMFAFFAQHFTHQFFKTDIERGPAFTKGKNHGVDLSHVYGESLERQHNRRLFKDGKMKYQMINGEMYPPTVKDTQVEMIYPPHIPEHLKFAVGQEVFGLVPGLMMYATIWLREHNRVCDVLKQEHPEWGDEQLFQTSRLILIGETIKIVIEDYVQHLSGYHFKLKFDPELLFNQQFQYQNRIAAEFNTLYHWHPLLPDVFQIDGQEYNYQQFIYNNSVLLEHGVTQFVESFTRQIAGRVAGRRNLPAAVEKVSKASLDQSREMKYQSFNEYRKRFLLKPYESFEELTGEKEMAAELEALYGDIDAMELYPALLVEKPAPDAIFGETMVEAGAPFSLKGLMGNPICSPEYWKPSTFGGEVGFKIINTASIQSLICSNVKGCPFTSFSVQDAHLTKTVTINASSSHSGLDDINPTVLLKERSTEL
As to the kind of experiment: In vitro COX-2 inhibition, enzyme immuno assay (EIA) kit. Type of experiment: biochemical. Conditions: for IC50: ovine COX-2, EIA, duplicate determinations; for Ration (COX ½): ratio of COX-1 IC50 to COX-2 IC50. Here is the method: as §1, §2, §3, §4

The subject of experiment [3] is carrageenin-induced edema of the hind paw. In words: Carrageenin-induced paw edema in rats. The note with it: for Swelling volume: rat hind paw; for decrease in the edema size: after 1 h, versus control. A general note: Carrageenan injected into the paw causes an acute inflammation.
Description: Sprague dawley rats (150-200 g) were used. Edema was induced by a single sub-plantar injection of carrageenin (1 mg/paw) into the left hind paw of the rat under light ether anesthesia. The total volume injected was always 0.1 ml. […] The results were expressed either as the increase in paw volume (ml) calculated by subtracting the basal volume or by calculating the area under the time-course curve (AUC; ml h) for each group.
Experiment [4] concerns inflammatory bowel disease IBD (ulcerative colitis). As to the kind of experiment: Tri-nitrobenzene sulfunic acid induced ulcerative colitis in rats, MPO activity in colon. It is filed as in vivo, Sprague dawley rats. Conditions: 25 mg/kg rectally, inflamed area of the colon, FIG. 7. The protocol: The exemplary RNX006 compound shown in FIG. 5 F, to which reference is now made, was tested for the effect on the inflammatory bowel disease IBD (ulcerative colitis) in rats as follows. Male Sprague dawley rats were used in this study. Briefly, ulcerative colitis was induced by tri-nitrobenzene sulfunic acid as described in the literature. Rats were divided into 4 groups, (−) sham (healthy, (+) control ulcerative colitis (UC, not treated), UC treated with RNX006 (25 mg/kg), and UC treated with 5-amino salicylic acid (5-ASA 25 mg/kg). RNX006 and 5-ASA were administered rectally during all the period of the experiment. At the end of the experiment animals were sacrificed and the colon was isolated to test the severity of the inflammation. The severity of the inflammation was tested by measurement of the myeloperoxidase activity (MPO activity) in the inflamed area of the colon.

As to `CCCCCCCC/C=C/CCCCCCCC(=O)N1CC(O)CC1C(=O)O` (stereo not drawn) [RNX001], the concentration for half-maximal inhibition (IC50) in experiment [1] came out at 72.5 µM; in experiment [2], 1300 nM. In addition, the “Ration (COX ½)” value in experiment [2] was 55.7. Moreover, the Swelling volume in experiment [3] (1 hr after carrageenin) was determined as 1.1 ± 0.09 mL; in experiment [3] (2 hr after carrageenin) it was 1.3 ± 0.13 mL; in experiment [3] (3 hr after carrageenin) it was 1.9 ± 0.1 mL; in experiment [3] (4 hr after carrageenin), 1.8 ± 0.13 mL. In addition, the “decrease in the edema size” value in experiment [3] was determined as 31%.

As to `CCCCC/C=C/C/C=C/CCCCCCCC(=O)N1CC(O)CC1C(=O)O` (stereo not drawn) [RNX002], the IC50 in experiment [1] came out at 52.7 µM; in experiment [2], 510 nM. The “Ration (COX ½)” value in experiment [2] is given as 103.3. Besides, the Swelling volume in experiment [3] (1 hr after carrageenin) was found to be 0.9 ± 0.06 mL; in experiment [3] (2 hr after carrageenin), 1.6 ± 0.09 mL; in experiment [3] (3 hr after carrageenin), 2.3 ± 0.11 mL; in experiment [3] (4 hr after carrageenin), 2.1 ± 0.13 mL. Besides, the “decrease in the edema size” value in experiment [3] is recorded as 43.4%.

`CC/C=C\C/C=C/C/C=C/C/C=C/C/C=C/CCCC(=O)N1CC(O)CC1C(=O)O` (stereo not drawn) [RNX004] had an IC50 in experiment [1] of 39.5 µM. Also, in experiment [2], the IC50 came to 85 nM and the “Ration (COX ½)” value was determined as 464.11.

In experiment [1], `CC/C=C\C/C=C/C/C=C/C/C=C/C/C=C/C/C=C/CCC(=O)N1CC(O)CC1C(=O)O` (stereo not drawn) [RNX005] displayed an IC50 of 42.8 µM. In addition, in experiment [2], the IC50 worked out at 81 nM and the “Ration (COX ½)” value stood at 528.68.

In the case of `CCCCC/C=C/C/C=C/C/C=C/CCCCC(=O)NCCS(=O)(=O)O` [RNX006], in experiment [4], the “MPO activity relatively to IBD rats treated with 5-ASA” value is recorded as “even a lower MPO activity” and the “MPO activity relatively to the (+) control of non-treated IBD rats” value is on record as “significantly lower MPO activity”.
